Here are results for 13 molecules from patent US5474898A, “Octopamine receptor” (The United States of America as represented by the …, priority 1994, dated 1995).

The target of experiment [1] is T1, Drosophila octopamine receptor (Drosophila melanogaster, UniProt P22270).
T1 construct: membranes or whole cells
T1 sequence (P22270 27-601): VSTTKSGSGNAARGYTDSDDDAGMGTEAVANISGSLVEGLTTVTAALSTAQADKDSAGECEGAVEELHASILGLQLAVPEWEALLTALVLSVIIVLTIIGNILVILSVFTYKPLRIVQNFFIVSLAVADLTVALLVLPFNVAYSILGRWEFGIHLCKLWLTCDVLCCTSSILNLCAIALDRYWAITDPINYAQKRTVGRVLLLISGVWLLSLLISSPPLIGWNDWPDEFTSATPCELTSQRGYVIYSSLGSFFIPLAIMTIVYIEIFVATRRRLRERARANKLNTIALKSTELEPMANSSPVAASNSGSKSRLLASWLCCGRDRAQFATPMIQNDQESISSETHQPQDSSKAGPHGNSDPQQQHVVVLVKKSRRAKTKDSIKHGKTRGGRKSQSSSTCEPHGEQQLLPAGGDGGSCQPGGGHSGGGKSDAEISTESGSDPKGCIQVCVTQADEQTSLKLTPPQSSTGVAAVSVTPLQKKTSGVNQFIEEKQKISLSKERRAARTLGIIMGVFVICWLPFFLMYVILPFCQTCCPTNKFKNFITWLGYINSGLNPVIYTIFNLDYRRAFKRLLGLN
The experiment can be described thus: Attenuation of forskolin-stimulated cAMP in CHO-K1 cells expressing the Drosophila octopamine receptor. It is filed as cell-based. The procedure: Transfected cells (3×10^5 cells per dish) were washed once with PBS and incubated in PBS containing 1 mM 3-isobutyl-1-methylxanthine (Sigma) at 37° C. for 20 min. Agonists, at the indicated final concentrations, were added to the cultures along with 10 μM forskolin (Sigma), and cultures were incubated at 37° C. for an additional 20 min. Incubations were terminated by the addition of 6% trichloroacetic acid. Trichloroacetic acid extracts were extracted four times with distilled water-saturated ether, and cMAP concentrations were determined using a cAMP radioimmunoassay kit (New England Nuclear). Data are expressed as percent forskolin-stimulated cAMP production. In the indicated experiments, cell cultures were incubated with Bordetella pertussis islet activating protein (200 ng/ml; list biological lab) at 37° C. for 18 hr in normal culture medium prior to the assay of cAMP. Solid and open squares represent data obtained with octopamine in transfected and control cells, respectively. Solid circles represent data with epinephrine in transfected cells. […] Data represent the average ±SEM of at least three separate experiments performed in duplicate.
(§1) Another aspect of the present invention relates to another drug screening method that identifies new compounds with biogenic amine (agonists) or antagonist activity for biogenic receptors by measuring adenylate cyclase concentrations in transfected CHO-K1 cells expressing octopamine receptors. In one embodiment, potential drugs are tested for their ability to attenuate forskolin-stimulated adenylate cyclase activity. Forskolin is added to control or octopamine receptor transfected CHO-K1 cells that stimulates increased intracellular cAMP levels in transfected cells over basal CHO-K1 levels. In the presence of forskolin, known concentrations of octopamine are added and the attenuation of forskolin stimulated cyclase AMP is calculated. A potential antagonist is determined by the competitive reversal of octopamine mediated attenuation of forskolin stimulated cyclic AMP accumulation when the drug is added to the assayed transfected cells.
Because of the pharmacological and structural similarities of the Drosophila receptor to mammalian […] receptors, the ability of octopamine to attenuate forskolin-stimulated adenylate cyclase activity was tested.

The next experiment deals with Octampamine1. The following applies: locust neuromuscular preparation; data from Evans (1981/1982); cited from earlier work.
Experiment [2] concerns the target T1, Drosophila octopamine receptor. In words: [3H]yohimbine competition displacement binding to membranes of transfected CHO-K1 cells. From the text: (§2) In a binding assay provided herein, octopamine receptor genes isolated from a specific DNA library are inserted into a plasmid expression vector and used to transfect a Chinese hamster […] cell called CHO-K1 cells. These cells stably integrate the foreign DNA into the genome. Cells that express the insect octopamine receptor and process receptor into the mammalian cell membrane are cloned, expanded and frozen down for further use as membrane preparations in a ligand binding assay. […] After the incubations are terminated, the reaction mixture containing labeled ligand bound to receptor membranes is calculated by measuring label.
(§3) Cell membranes from transfected cells were prepared as previously described (F.-Z. Chung et al., J. Bol. Chem. 263:4052-4055 (1988); C. M. Fraser et al., Proc. Natl. Acad. Sci. USA 85:5478-5482 (1988), C. M. Fraser et al., J. Biol. Chem. 264:11754-11761 (1989), C. M. Fraser et al., Proc. Nat;. Acad. Sci. USA 85:5478-5482 (1989)).
Membrane bound octopamine receptors (20 μg of protein)
concentrations of the indicated agonists (0.1 μM to 2 mM) or
antagonists (10 nM to 200 μM). Incubations were performed at 37.degree
C. for 20 min in a final volume of 250 μl and terminated by filtration
over Whatman GF/C glass fiber filters. Experiments were repeated three
times in triplicate, and the average inhibition constants (± SD) were
caluclated using the LIGAND program of Munson and Rodbard (1980).

For experiment [3] the target is unchanged. The experiment can be described thus: [3H]yohimbine saturation binding to membranes of transfected CHO-K1 cells.
From the text: as §2, §3

Experiment [4] has as its system control, untransfected CHO-K1 cells. In words: [3H]yohimbine binding to membranes of control, untransfected CHO-K1 cells. The following applies: untransfected CHO-K1 cell membranes. More on the design: species or system Chinese hamster.
From the text: as §2, §3

The subject of another experiment is Octapamine2. The following applies: locust neuromuscular preparation; data from Evans (1981/1982); cited from earlier work.
The test system of another experiment is Octopamine20. The conditions noted are these: locust neuromuscular preparation; data from Evans (1981/1982); cited from earlier work.
A further experiment concerns control CHO-K1 cells. The experiment can be described thus: Attenuation of forskolin-stimulated cAMP in control CHO-K1 cells. It is filed as cell-based, Chinese hamster. The following applies: 10 μM forskolin (FIG. 4). The protocol:
(§4) Transfected cells (3×10^5 cells per dish) were washed once with PBS and incubated in PBS containing 1 mM 3-isobutyl-1-methylxanthine (Sigma) at 37° C. for 20 min. Agonists, at the indicated final concentrations, were added to the cultures along with 10 μM forskolin (Sigma), and cultures were incubated at 37° C. for an additional 20 min. Incubations were terminated by the addition of 6% trichloroacetic acid. Trichloroacetic acid extracts were extracted four times with distilled water-saturated ether, and cMAP concentrations were determined using a cAMP radioimmunoassay kit (New England Nuclear). Data are expressed as percent forskolin-stimulated cAMP production. […]
as §1, with “In one embodiment, potential drugs are tested for their ability to attenuate forskolin-stimulated adenylate cyclase activity. Forskolin is added to control or octopamine receptor transfected CHO-K1 cells that stimulates increased intracellular cAMP levels in transfected cells over basal CHO-K1 levels.” left out, “cells. […]” for “cells.”

A further experiment deals with adenylate cyclase. The experiment can be described thus: Forskolin stimulation of intracellular cAMP in control or transfected CHO-K1 cells. The conditions noted are these: Cricetulus griseus, CHO-K1, 20 min, read-out: increase in intracellular cAMP levels over basal values. The protocol:
as §4
as §1, with “In one embodiment, potential drugs are tested for their ability to attenuate forskolin-stimulated adenylate cyclase activity. Forskolin is added to control or octopamine receptor transfected CHO-K1 cells that stimulates increased intracellular cAMP levels in transfected cells over basal CHO-K1 levels.” left out, “cells. […]” for “cells.”
Background: Cyclic AMP is a second messenger, typically raised through Gs and lowered through Gi signalling.

Setting [5] is: displacement of 6 nM [3H]yohimbine, 37° C., 20 min, average ± SD, three times in triplicate, read-out: K1.

Where two headings read alike, the source gives them in different places.

Usually EC50 stands for the concentration at which the effect is half-maximal. Take `COC(=O)[C@@H]1[C@H]2C[C@H]3c4[nH]c5ccccc5c4CCN3C[C@@H]2CC[C@@H]1O` [Yohimbine]: the “antagonism of octopamine-mediated attenuation of forskolin stimulated cAMP accumulation” value in experiment [1] (transfected cells, 10 μM yohimbine (FIG. 4)) is “competitively antagonized”. Moreover, the half-maximal effective concentration (EC50) with Octampamine1 was 0.28 µM.
For the molecule `CNCC(O)c1ccc(O)cc1` (racemic) [Synephrine(±), Synephrine], the Ki in experiment [2] was 10.8 ± 2.5 µM.
Take `CC(C)NCC(O)c1ccc(O)c(O)c1` (stereo not drawn) [Isoproterenol(-), Isoproterenol]: the Ki in [2] (setting [5]) and in [2] (read-out: Ki) was > 1000 µM in each case.
Usually Kd stands for a measure of binding affinity in units of concentration. The molecule `COC(=O)[C@@H]1[C@H]2C[C@H]3c4[nH]c5ccccc5c4CCN3C[C@@H]2CC[C@@H]1O` [[^3 H]yohimbine] yielded an equilibrium dissociation constant (Kd) in [3] of 0.0062 µM. Also, the Bmax in experiment [3] (transfected cell membranes) is 1.75 pmol of receptor per mg of membrane protein. For the same molecule, in [4], the specific radioligand binding result is recorded as “No specific radioligand binding was observed”.
On to `Cc1ccc(N(CC2=NCCN2)c2cccc(O)c2)cc1` [Phentolamine], for which the Ki in experiment [2] (read-out: K1) was found to be 2.2 ± 0.7 µM. Also, the concentration giving a half-maximal response (EC50) in the experiment on Octampamine1 is 0.0019 µM.
As for `CCN(CC)CCNC(=O)c1cc(Cl)c(N)cc1OC` [Metoclopramide], the EC50 with Octapamine2 is 1 µM; with Octopamine20 it was 9.5 µM. Further, in [2] (read-out: K1), the Ki worked out at 4.6 ± 1.4 µM. Besides, the “EC50, Octampamine1” value in the experiment on Octampamine1 is “No effect-10^-6”.
As to `NCC(O)c1ccc(O)cc1` (racemic) [Octopamine(±), Octopamine], the activity at 100 µM in experiment [1] (CHO-K1, 20 min, 100 μM octopamine plus 10 μM forskolin, transfected cells, read-out: cAMP levels, % of those seen with forskolin alone) is 46%. Besides, in [1] (transfected cells pretreated with pertussis toxin 200 ng/ml, 18 hr), the “ability to attenuate forskolin-stimulated cAMP levels after Bordetella pertussis islet activating protein” value is “abolished”. For the same molecule, the “attenuation of forskolin-stimulated cAMP levels” value in experiment [1] (transfected cells, 10 μM forskolin (FIG. 4)) was “dose-dependent attenuation of forskolin-stimulated cAMP levels”; in the experiment on control CHO-K1 cells it was “not observed in control cells”. The Ki in [2] (read-out: Ki) came to 29 ± 6 µM.
On to `NCCc1c[nH]c2ccc(O)cc12` [Serotonin], for which, in experiment [2], the Ki was 75 ± 18 µM.
Turning to `NCCc1ccc(O)c(O)c1` [Dopamine], the Ki in experiment [2] (setting [5]) and in experiment [2] (read-out: Ki) was > 1000 µM throughout.
Turning to `Clc1cccc(Cl)c1N=C1NCCN1` [Clonidine], the values for the EC50 in the experiment on Octapamine2 and in the experiment on Octampamine1 were 6.4 µM and 0.00068 µM, respectively. The same molecule registered a Ki in experiment [2] of 21 ± 7 µM.
As for `C=C[C@@]1(C)CC(=O)[C@]2(O)[C@@]3(C)[C@@H](O)CCC(C)(C)[C@@H]3[C@H](O)[C@H](OC(C)=O)[C@@]2(C)O1` [forskolin], in the experiment with adenylate cyclase, the fold induction at 10 µM turned out to be 35.
On to `CNC[C@H](O)c1ccc(O)c(O)c1` [Epinephrine(-), Epinephrine], for which the “attenuation of forskolin-stimulated cAMP levels” value (in experiment [1]; in the experiment with control CHO-K1 cells) was “no effect on forskolin-stimulated cAMP levels” in each case. Besides, the Ki in experiment [2] is 139 ± 41 µM.
In experiment [2], `CN(C)CCCN1c2ccccc2Sc2ccc(Cl)cc21` [Chlorpromazine] showed a Ki of 0.18 ± 0.06 µM. Further, in the experiment on Octampamine1, the EC50 was 0.026 µM.
